Measured values: patent publication US20200405716A1, “HISTONE DEACETYLASE 6 (HDAC6) BIOMARKERS IN MULTIPLE MYELOMA” (Acetylon Pharmaceuticals, Inc., priority 2013, published 2020)

Legend:
Assay type in all cases: cell-based, Human
[1] = system: multiple myeloma cell line MM.1S; assay: microRNA and mRNA array, treated MM.1S cells; conditions: 37° C., 6 hours
Source text: The Human miRNome Complete RT^2 miRNA PCR Array profiles the expression of the 752 most abundantly expressed and best characterized microRNA (miRNA) sequences in the Human miRNA genome (miRNome), as annotated by the Sanger miRBase Release 14. The Illumina Gene Expression Beadchip content provides genome-wide transcriptional coverage of well-characterized genes, gene candidates, and splice variants. Each array on the BeadChip targets more than 47,000 probes derived from the National Center for Biotechnology Information Reference Sequence (NCBI) RefSeq Release 38 (Nov. 7, 2009) and other sources. Compound D was incubated with a multiple myeloma cell line (MM.1S or RPMI8226) or a stromal cell line (HS-5) at 37° C. for 6 hours. The concentration of Compound D was 2 uM. Alternatively, Compound A was incubated with the multiple myeloma cell line MM.1S at 37° C. for 6 hours. Total RNA was extracted from the treated cells (e.g., MM.1S cells and RPMI8226 cells) and analyzed using microRNA array. […] The numbers shown are normalized to the expression level of the corresponding biomarker in control cells. For example, the expression level of biomarker hsa-miR-346 was 0.26, which means that the expression level of this biomarker in treated MM.1S cells was 26% of the expression level of this biomarker in MM.1S control cells. Conversely, the expression level of biomarker hsa-miR-145 was 3.09, which means that the expression level of this biomarker in treated MM.1S cells was 3.09 fold of the expression level of this biomarker in MM.1S control cells.

stromal cell line HS-5 = assay: microRNA and mRNA array, treated stromal HS-5 cells; conditions: Compound D 2 uM, 37° C., 6 hours
Source text: (§1) The Human miRNome Complete RT^2 miRNA PCR Array profiles the expression of the 752 most abundantly expressed and best characterized microRNA (miRNA) sequences in the Human miRNA genome (miRNome), as annotated by the Sanger miRBase Release 14.
(§2) The Illumina Gene Expression Beadchip content provides genome-wide transcriptional coverage of well-characterized genes, gene candidates, and splice variants. Each array on the BeadChip targets more than 47,000 probes derived from the National Center for Biotechnology Information Reference Sequence (NCBI) RefSeq Release 38 (Nov. 7, 2009) and other sources.
(§3) Compound D was incubated with a multiple myeloma cell line (MM.1S or RPMI8226) or a stromal cell line (HS-5) at 37° C. for 6 hours. The concentration of Compound D was 2 uM.
(§4) Total RNA was extracted from the treated cells (e.g., MM.1S cells and RPMI8226 cells) and analyzed using microRNA array.
(§5) The numbers shown are normalized to the expression level of the corresponding biomarker in control cells. For example, the expression level of biomarker hsa-miR-346 was 0.26, which means that the expression level of this biomarker in treated MM.1S cells was 26% of the expression level of this biomarker in MM.1S control cells. Conversely, the expression level of biomarker hsa-miR-145 was 3.09, which means that the expression level of this biomarker in treated MM.1S cells was 3.09 fold of the expression level of this biomarker in MM.1S control cells.

[2] = system: multiple myeloma cell line RPMI8226; assay: microRNA and mRNA array, treated RPMI8226 cells; conditions: RPMI-8226 cells, Compound D 2 uM, 37° C., 6 hours
Source text: as §1, §2, §3, §4, §5

[3] = Compound A (concentration not given)

## O=C(NO)c1cnc(NC2(c3ccccc3)CC2)nc1 [Compound D, N-hydroxy-2-((1-phenylcyclopropyl)amino)pyrimidine-5-carboxamide]
[1]; Compound D 2 uM
  expression of miRNA SEQ ID NO: 1 (hsa-miR-346) normalized to control cells: 0.26
  expression of miRNA SEQ ID NO: 2 normalized to control cells: 0.33
  expression of miRNA SEQ ID NO: 3 normalized to control cells: 0.23
  expression of miRNA SEQ ID NO: 4 normalized to control cells: 0.27
  expression of miRNA SEQ ID NO: 5 normalized to control cells: 0.31
  expression of miRNA SEQ ID NO: 12 (hsa-miR-145) normalized to control cells: 3.09
  expression of miRNA SEQ ID NO: 13 normalized to control cells: 3.53
  expression of miRNA SEQ ID NO: 14 normalized to control cells: 3.19
  expression of miRNA SEQ ID NO: 15 normalized to control cells: 3.29
  expression of miRNA SEQ ID NO: 16 normalized to control cells: 4.68
  expression of small non-coding RNA SEQ ID NO: 26 normalized to control cells: 0.46
  expression of small non-coding RNA SEQ ID NO: 27 normalized to control cells: 0.45
Stromal cell line HS-5
  HIF-1a expression level in treated cells as % of the expression level in control cells: 49%
  PTPRU expression level in treated cells, fold of the expression level in control cells: 2.52 fold
  expression of mRNA SEQ ID NO: 24 (HIF-1a) normalized to control cells: 0.49
  expression of mRNA SEQ ID NO: 25 (PTPRU) normalized to control cells: 2.52
  expression of miRNA SEQ ID NO: 10 normalized to control cells: 0.26
  expression of miRNA SEQ ID NO: 11 normalized to control cells: 0.15
  expression of miRNA SEQ ID NO: 19 normalized to control cells: 6.64
  expression of miRNA SEQ ID NO: 20 normalized to control cells: 21.71
  expression of miRNA SEQ ID NO: 21 normalized to control cells: 54.35
  expression of miRNA SEQ ID NO: 22 normalized to control cells: 5.95
  expression of miRNA SEQ ID NO: 23 normalized to control cells: 3.52
[2]
  expression of miRNA SEQ ID NO: 2 normalized to control cells: 0.09
  expression of miRNA SEQ ID NO: 6 normalized to control cells: 0.28
  expression of miRNA SEQ ID NO: 7 normalized to control cells: 0.25
  expression of miRNA SEQ ID NO: 8 normalized to control cells: 0.33
  expression of miRNA SEQ ID NO: 9 normalized to control cells: 0.24
  expression of miRNA SEQ ID NO: 17 normalized to control cells: 3.22
  expression of miRNA SEQ ID NO: 18 normalized to control cells: 3.31

## O=C(CCCCCCNC(=O)c1cnc(N(c2ccccc2)c2ccccc2)nc1)NO [Compound A, 2-(diphenylamino)-N-(7-(hydroxyamino)-7-oxoheptyl) pyrimidine-5-carboxamide]
[1]; [3]
  expression of small non-coding RNA SEQ ID NO: 26 normalized to control cells: 0.74
  expression of small non-coding RNA SEQ ID NO: 27 normalized to control cells: 0.74
